Patent US20120142657A1, “GABA-STEROID ANTAGONISTS AND THEIR USE FOR THE TREATMENT OF CNS DISORDERS” (UMECRINE AB, priority 2004, published 2012)

Target: T1, rat GABA-A receptor (alpha1, beta2, gamma2L) (Rattus norvegicus, UniProt P18508+P62813+P63138, INS375LLRMFSFK)
T1 construct: expressed in transfected cells; host or cells: Xenopus laevis oocytes (mRNA injection)
Assay: Chloride flux (current) in recombinant GABA-A receptors expressed in Xenopus laevis oocytes, voltage clamp
Assay type: cell-based
Settings: chloride flux induced by GABA alone
Source text: Studies of Chloride Flux in Recombinant GABA-A Receptors (Alpha1, Beta2, Gama2L) Expressed in Xenopus laevis Oocytes Using Voltage Clamp Methods.
The GABA-A receptor used to test the steroids in the present invention was recombinantly expressed in oocytes of Xenopus laevis. The oocytes have a large capacity to express proteins for the surface membrane from mRNA injected into the oocyte. The receptor contains five proteins of three different types and the mRNA for the receptor subtypes alpha1, beta2, gamma2L were expressed in the present test situation. These subtypes of the GABA-A receptor are the most common in the central nervous system. These GABA-A receptors contain two alpha1 proteins, two beta2 and one gamma protein. After 48 hours of incubation the GABA-A receptors are mounted in the membrane and behave in vitro in a similar way as the receptor in situ. Therefore this model system is considered by persons skilled in art to be a good in vitro test system for GABA-A receptor active drugs. The flux of chloride through the chloride channel is a result of GABA activity on the GABA-A receptor and GABA-A receptor modulators like the 3alpha-hydroxy-5alpha/beta-pregnan-steroids can enhance the effectiveness of GABA. The flux of chloride through the receptor is measured as the current induced by the flux with a voltage clamp technique. Dose response curves of the agonists and antagonists can be developed and the current is dependent of the GABA-A receptor activation obtained after the interaction between different dosages of agonists and antagonists. By normalizing the data against a precise current, in the present study 2 μA, the results from different oocytes can be compared and by normalizing the current change against a specific dose, here 10 μM, the different test substances can be compared. The 3alpha-hydroxy-5alpha-pregnan-20-one induced enhancement of GABA mediated chloride flux was set to 1 and obtained by superfusing the GABA-A receptor expressing oocytes with 3 μM GABA+3 μM 3alpha-hydroxy-5alpha-pregnan-20-one in an in vitro bath. The chloride flux was measured as the current induced by the flux of chloride through the GABA-A receptors. The GABA induced chloride flux was set to 1 and obtained by superfusing the GABA-A receptor expressing oocytes in vitro with 30 μM GABA. The inhibiting effect on 3alpha-hydroxy-5alpha-pregnan-20-one induced enhancement of GABA mediated chloride flux by the tested UC-steroids is compared to the inhibiting effect of the same UC-steroids on GABA activation of the GABA-A receptor. In FIG. 1 are the UC-steroids with low GABA antagonism highlighted with an X while the UC-steroids with partial GABA antagonism are highlighted with a black dot ([…]).
On the figure the result are normalized to the control currents activated by 30 µM GABA or 3 μM GABA+3 μM 3alpha-hydroxy-5alpha-pregnan-20-one. The control current in the absence of steroid antagonists is normalized to […]. Each steroid antagonist is tested at 10 μM. […] The black dot ([…]) highlights the steroid antagonist that inhibits both direct GABA-response (30 μM) and 3alpha-hydroxy-5alpha-pregnan-20-one enhanced GABA response. The labels of the data points are marked with product numbers, whereas the numbering of different substances full name is shown in Table 2 and Table 3.
The studies on 3alpha-hydroxy-5alpha-pregnan-20-one inhibition were made in the presence of 3 μM GABA+3 μM 3alpha-hydroxy-5alpha-pregnan-20-one. […] Number of cells recorded n=3-10. […]

T1 sequence (P62813 28-455, stated change not applied): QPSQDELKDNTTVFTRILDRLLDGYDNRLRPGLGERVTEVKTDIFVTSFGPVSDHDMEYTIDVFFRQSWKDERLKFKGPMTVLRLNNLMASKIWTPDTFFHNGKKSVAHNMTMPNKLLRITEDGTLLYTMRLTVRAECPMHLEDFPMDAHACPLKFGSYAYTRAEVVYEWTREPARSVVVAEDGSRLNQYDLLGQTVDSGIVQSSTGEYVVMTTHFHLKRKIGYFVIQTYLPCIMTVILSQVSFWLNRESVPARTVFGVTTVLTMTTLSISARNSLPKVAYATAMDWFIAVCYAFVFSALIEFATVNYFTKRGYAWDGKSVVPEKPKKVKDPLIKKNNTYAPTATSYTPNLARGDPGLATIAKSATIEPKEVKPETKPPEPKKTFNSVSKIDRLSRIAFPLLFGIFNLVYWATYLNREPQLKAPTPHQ
T1 sequence (P63138 26-474, stated change not applied): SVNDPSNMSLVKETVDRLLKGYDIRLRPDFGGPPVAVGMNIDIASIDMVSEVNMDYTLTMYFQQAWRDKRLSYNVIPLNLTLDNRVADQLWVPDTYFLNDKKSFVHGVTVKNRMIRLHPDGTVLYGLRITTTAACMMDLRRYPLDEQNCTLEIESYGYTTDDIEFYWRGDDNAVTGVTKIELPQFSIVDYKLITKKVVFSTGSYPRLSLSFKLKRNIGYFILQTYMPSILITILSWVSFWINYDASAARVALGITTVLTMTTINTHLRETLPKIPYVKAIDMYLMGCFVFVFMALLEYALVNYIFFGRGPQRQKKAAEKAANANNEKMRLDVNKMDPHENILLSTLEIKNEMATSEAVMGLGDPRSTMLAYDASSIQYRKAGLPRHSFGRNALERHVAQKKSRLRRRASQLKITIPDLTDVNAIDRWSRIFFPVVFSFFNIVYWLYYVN
T1 sequence (P18508 with tags, fused parts or gaps INS375LLRMFSFK): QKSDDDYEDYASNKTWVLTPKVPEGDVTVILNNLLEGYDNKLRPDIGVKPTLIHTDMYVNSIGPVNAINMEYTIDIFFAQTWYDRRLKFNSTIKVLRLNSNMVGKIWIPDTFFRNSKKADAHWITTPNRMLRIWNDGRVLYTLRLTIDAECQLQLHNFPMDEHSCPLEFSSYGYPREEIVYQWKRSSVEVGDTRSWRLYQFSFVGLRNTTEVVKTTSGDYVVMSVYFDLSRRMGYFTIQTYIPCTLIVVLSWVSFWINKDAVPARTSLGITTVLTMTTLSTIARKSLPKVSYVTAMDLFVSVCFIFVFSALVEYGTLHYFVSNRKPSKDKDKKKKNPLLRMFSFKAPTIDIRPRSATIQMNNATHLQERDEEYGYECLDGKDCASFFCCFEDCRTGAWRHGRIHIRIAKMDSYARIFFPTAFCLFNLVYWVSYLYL

| SMILES | antagonism against GABA itself (in words) |
| --- | --- |
| CC(O)C1CCC2C3CCC4CC(O)CCC4(C)C3CCC12C (stereo not drawn) [UC1011, 5alpha-PREGNAN-3beta, 20beta-DIOL] | low antagonism against GABA it self |
| CC(=O)O[C@H]1CC[C@@]2(C)[C@@H](CC[C@@H]3[C@@H]2CC[C@]2(C)[C@@H](C(C)=O)CC[C@@H]32)C1 [UC1012, 5alpha-PREGNAN-3beta-OL-20-ONE ACETATE] | partial antagonism against the GABA effect |
| C[C@@H](O)[C@H]1CC[C@H]2[C@@H]3CC[C@@H]4C[C@@H](O)CC[C@]4(C)[C@H]3CC[C@]12C [UC1013, 5beta-PREGNAN-3beta, 20alpha-DIOL] | low antagonism against GABA it self |
| CC(=O)[C@H]1CC[C@H]2[C@@H]3CC[C@@H]4C[C@@H](O)CC[C@]4(C)[C@H]3CC[C@]12C [UC1014, 5beta- PREGNAN-3beta-OL-20-ONE] | partial antagonism against the GABA effect |
| C[C@]12CC[C@H](O)C[C@H]1CC[C@@H]1[C@@H]2CC[C@]2(C)[C@@H](C(=O)CO)CC[C@@H]12 [UC1015, 5beta-PREGNAN-3beta, 21-DIOL-20-ONE] | partial antagonism against the GABA effect |
